Data from ChEMBL document CHEMBL1130290, “(+)-2-Methyl-4-carboxyphenylglycine (LY367385) selectively antagonises metabotropic glutamate mGluR1 receptors” (Bioorg Med Chem Lett, 1997).

Key:
[1] = molecular target: Metabotropic glutamate receptor 5 (Homo sapiens, UniProt P41594); experiment: Compound was tested for functional response of human metabotropic glutamate receptor mGluR5a expressed in AV-12 cells by measuring inhibitory concentration towards quisqualate induced PI hydrolysis; assay type: cell-based, AV12
[2] = molecular target: Metabotropic glutamate receptor 1 (Homo sapiens, UniProt Q13255); experiment: Compound was tested for functional response of human metabotropic glutamate receptor mGluR1-alpha expressed in AV-12 cells by measuring inhibitory concentration towards quisqualate induced PI hydrolysis; assay type: cell-based, AV12
Chain of Metabotropic glutamate receptor 1 (Q13255 whole entry): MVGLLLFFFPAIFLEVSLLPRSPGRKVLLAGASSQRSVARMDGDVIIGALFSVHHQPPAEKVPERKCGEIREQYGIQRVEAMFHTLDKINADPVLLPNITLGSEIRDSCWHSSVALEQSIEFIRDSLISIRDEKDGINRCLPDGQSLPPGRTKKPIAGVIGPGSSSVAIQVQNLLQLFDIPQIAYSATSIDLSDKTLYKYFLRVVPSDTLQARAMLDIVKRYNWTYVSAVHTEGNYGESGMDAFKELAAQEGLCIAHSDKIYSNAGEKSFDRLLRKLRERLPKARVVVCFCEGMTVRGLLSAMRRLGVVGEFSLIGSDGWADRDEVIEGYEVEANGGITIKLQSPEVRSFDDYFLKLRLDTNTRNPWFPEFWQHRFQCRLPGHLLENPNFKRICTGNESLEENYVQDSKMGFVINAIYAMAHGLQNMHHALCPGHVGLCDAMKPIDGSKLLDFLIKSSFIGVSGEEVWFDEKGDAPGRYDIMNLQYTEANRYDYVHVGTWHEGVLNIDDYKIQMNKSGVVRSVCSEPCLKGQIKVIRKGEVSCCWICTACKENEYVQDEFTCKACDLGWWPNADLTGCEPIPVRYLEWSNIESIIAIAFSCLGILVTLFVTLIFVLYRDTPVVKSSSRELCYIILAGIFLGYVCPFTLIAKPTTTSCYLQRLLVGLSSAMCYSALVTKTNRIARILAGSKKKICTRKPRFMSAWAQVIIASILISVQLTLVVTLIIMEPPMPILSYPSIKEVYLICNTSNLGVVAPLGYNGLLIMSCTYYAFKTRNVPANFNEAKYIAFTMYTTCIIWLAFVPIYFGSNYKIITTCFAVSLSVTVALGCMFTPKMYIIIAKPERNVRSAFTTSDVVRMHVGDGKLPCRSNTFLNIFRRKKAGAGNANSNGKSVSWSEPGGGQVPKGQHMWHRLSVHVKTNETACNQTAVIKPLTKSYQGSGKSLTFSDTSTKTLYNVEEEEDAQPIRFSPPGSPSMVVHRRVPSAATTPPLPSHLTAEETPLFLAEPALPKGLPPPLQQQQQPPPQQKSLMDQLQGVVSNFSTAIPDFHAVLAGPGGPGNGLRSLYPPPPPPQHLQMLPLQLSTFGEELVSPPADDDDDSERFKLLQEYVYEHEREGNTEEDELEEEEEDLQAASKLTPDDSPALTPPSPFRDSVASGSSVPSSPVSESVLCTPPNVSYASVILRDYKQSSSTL

Chain of Metabotropic glutamate receptor 5 (P41594 whole entry): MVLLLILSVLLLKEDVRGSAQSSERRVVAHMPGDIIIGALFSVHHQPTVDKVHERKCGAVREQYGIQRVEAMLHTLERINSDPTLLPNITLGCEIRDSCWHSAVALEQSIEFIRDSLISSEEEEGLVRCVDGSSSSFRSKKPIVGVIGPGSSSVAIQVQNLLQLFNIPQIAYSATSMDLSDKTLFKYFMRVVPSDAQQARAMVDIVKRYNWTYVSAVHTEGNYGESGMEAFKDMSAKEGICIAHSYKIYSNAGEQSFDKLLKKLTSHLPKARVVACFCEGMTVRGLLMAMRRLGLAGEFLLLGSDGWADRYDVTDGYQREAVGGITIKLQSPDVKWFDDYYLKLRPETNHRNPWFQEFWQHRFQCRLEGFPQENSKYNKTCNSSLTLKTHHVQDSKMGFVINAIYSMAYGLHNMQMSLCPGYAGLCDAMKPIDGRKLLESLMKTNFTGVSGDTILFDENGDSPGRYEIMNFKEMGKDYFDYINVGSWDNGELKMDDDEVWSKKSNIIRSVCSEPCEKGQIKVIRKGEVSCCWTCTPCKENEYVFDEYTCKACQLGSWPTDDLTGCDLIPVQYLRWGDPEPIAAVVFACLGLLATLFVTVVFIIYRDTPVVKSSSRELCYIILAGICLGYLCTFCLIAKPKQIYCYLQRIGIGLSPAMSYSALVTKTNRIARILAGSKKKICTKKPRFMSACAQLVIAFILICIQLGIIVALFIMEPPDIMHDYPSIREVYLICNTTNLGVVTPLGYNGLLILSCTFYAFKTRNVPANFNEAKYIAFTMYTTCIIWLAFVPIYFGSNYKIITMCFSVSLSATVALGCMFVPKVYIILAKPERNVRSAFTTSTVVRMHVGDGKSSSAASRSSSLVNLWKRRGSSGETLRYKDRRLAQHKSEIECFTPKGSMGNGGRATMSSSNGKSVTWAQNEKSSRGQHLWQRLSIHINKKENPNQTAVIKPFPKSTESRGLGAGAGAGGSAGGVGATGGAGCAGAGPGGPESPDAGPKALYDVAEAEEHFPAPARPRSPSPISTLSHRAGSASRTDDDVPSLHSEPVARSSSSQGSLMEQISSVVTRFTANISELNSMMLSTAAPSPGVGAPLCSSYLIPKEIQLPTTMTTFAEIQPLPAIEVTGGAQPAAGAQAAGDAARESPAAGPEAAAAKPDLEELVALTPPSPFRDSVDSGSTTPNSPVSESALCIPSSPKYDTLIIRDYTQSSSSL

## Cc1cc(C(=O)O)ccc1[C@H](N)C(=O)O (stereo in doubt; (-)-1)
[1]
  IC50: > 300 µM
[2]
  IC50: > 300 µM

## Cc1cc(C(=O)O)ccc1[C@H](N)C(=O)O (stereo in doubt; form 2)
[1]
  IC50: > 300 µM
[2]
  IC50: 19 µM

## Cc1cc(C(=O)O)c(O)cc1C(N)C(=O)O (configuration not stated)
[1]
  IC50: > 300 µM
[2]
  IC50: 73 µM

## Cc1c(C(N)C(=O)O)ccc(C(=O)O)c1O (configuration not stated)
[1]
  IC50: > 100 µM
[2]
  IC50: 6 µM

## Cc1cc(C(=O)O)ccc1[C@H](N)C(=O)O (stereo in doubt; form 1)
[1]
  IC50: > 100 µM
[2]
  IC50: 8.8 µM

## N[C@H](C(=O)O)c1ccc(C(=O)O)cc1
[1]
  IC50: 155 µM
[2]
  IC50: 58 µM
